For 79 compounds, RP-LC retention time results are on record in the METLIN SMRT retention time set (Domingo-Almenara et al. 2019).

This data set in a line: gradient 5% acetonitrile 3 min, to 50% in 2 min, to 85% in 15 min, held 3 min, 100 µL/min. As to conditions: column: Zorbax Extend-C18 2.1 x 50 mm; eluents: water / acetonitrile, 0.1% formic acid. An outline of the steps: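 Mixtures of ~100 pure standards were chromatographed on a Zorbax Extend-C18 column (2.1 × 50 mm, 1.8 μm) at 100 μL/min using water and acetonitrile, each with 0.1% formic acid. Detection used a quadrupole time-of-flight mass spectrometer in positive and negative ionization mode, and data collection spanned 3 months. Retention time was obtained from adduct peaks picked computationally and each checked manually.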
For the compound `COc1ccc(-c2nc(N3CCCCC3)ncc2C(=O)O)cc1`, the RP-LC retention time was 923 s.

`O=C(C1CCCC1)N1CCCC1c1nc(C2CCOCC2)no1` (centres undefined) came in with an RP-LC retention time of 725 s.

`CNC(=O)C1CN(C(=O)c2ccccc2C(F)(F)F)CC12CCCC2` (centres undefined) yielded an RP-LC retention time of 609 s.

On to `COc1ccc(OC)c(S(=O)(=O)N2CCc3nc(-c4ccccc4)ncc3C2)c1`, for which the RP-LC retention time worked out at 998 s.

In turn, `COc1ccc(-c2nnc3sc(-c4ccncc4)nn23)cc1OC` yielded an RP-LC retention time of 710 s.

As for `O=C(NCc1cccs1)C1CCN(c2cnc(N3CCSCC3)nc2)CC1`, the RP-LC retention time amounted to 751 s.

In turn, `O=C(c1c(F)cccc1F)N1CCc2nc(-c3ccccc3)ncc2C1` showed an RP-LC retention time of 909 s.

`Cn1nccc1-c1cccc(-c2noc(Cc3ccc(Br)cc3)n2)c1` gave an RP-LC retention time of 1150 s.

Compound `O=c1c2ccccc2c(-c2nc(-c3cccnc3)no2)cn1-c1ccc(F)cc1` had an RP-LC retention time of 1050 s.

In turn, `COc1ccc(NS(=O)(=O)c2cc3c(s2)CCN(C(=O)C2CC2)C3)cc1F` yielded an RP-LC retention time of 762 s.

`O=S(=O)(c1ccc2nc(N3CCN(c4ccccc4F)CC3)ccc2c1)N1CCOCC1` yielded an RP-LC retention time of 939 s.

As for `Cc1[nH]nc(-c2cc(S(=O)(=O)NCC(C)c3ccccc3)c(C)s2)c1C` (centres undefined), the RP-LC retention time stood at 936 s.

The compound `CCCNC(=O)C1CCN(c2ccc(SCC(=O)Nc3ccccc3C(=O)OC)nn2)CC1` yielded an RP-LC retention time of 666 s.

The compound `Cc1ccc(CNC(=O)C2(C)CCC(=O)N2CCc2c[nH]c3ccccc23)cc1` (centres undefined) had an RP-LC retention time of 805 s.

Take `Cc1cc(C)cc(-c2nc(-c3ccc4c(c3)nnn4CCC(=O)N3CCCC3)no2)c1`: the RP-LC retention time worked out at 1090 s.

In the case of `Cc1cc(C(=O)N2CCN(c3ccccc3Cl)CC2)nc2ccnn12`, the RP-LC retention time worked out at 875 s.

On to `CCc1nc2cc(N3CCC(C(=O)NCc4ccccn4)CC3)cnc2nc1CC`, for which the RP-LC retention time was determined as 601 s.

`CCN1C(=O)C(C)(C(=O)Nc2ccccc2C)Oc2cccnc21` (centres undefined) gave an RP-LC retention time of 876 s.

With `COc1ccccc1-c1noc(C2CCCN2C(=O)c2cccc(F)c2)n1` (centres undefined), the RP-LC retention time was 856 s.

Compound `O=C(NC1CCN(c2cc(-c3ccc(F)cc3)[nH]n2)C1)c1ccc(F)c(F)c1` (centres undefined) yielded an RP-LC retention time of 807 s.

As for `Cc1nnsc1C(=O)Nc1ccc(-n2nc(C(F)(F)F)cc2C(F)(F)F)cc1`, the RP-LC retention time is 758 s.

With `CCc1ccc2[nH]c3c(c(=O)c2c1)CN(CC(=O)NCc1cccc(Cl)c1)CC3`, the RP-LC retention time worked out at 642 s.

Compound `Cc1cc(C)c2c(N3CCOCC3)nc(C(=O)N3CCN(C4CCCCC4)CC3)nc2n1` gave an RP-LC retention time of 574 s.

Consider `Cc1ccsc1C(=O)N1C[C@H]2C[C@H](C1)[C@H]1CCCC(=O)N1C2`, for which the RP-LC retention time turned out to be 754 s.

`CCCN1C(=O)C(CC(=O)NC(C)C)Sc2ncccc21` (centres undefined) had an RP-LC retention time of 680 s.

`Cc1cccc(CNC(=O)C2CCCN(S(=O)(=O)c3cc(-c4noc(C)n4)cs3)C2)c1` (centres undefined): the RP-LC retention time stood at 1010 s.

`COc1ccc(-c2nc(N3CCOCC3)c3sc(CN(C)c4ncc(C(=O)NO)cn4)cc3n2)cn1` gave an RP-LC retention time of 674 s.

For the compound `CCn1c(=O)sc2cc(S(=O)(=O)N3CCC(C(=O)NCc4ccc(OC)cc4)CC3)ccc21`, the RP-LC retention time came out at 978 s.

For `O=C1CC(c2noc(-c3ccc(-c4ccccc4)cc3)n2)CN1c1ccc(F)cc1` (centres undefined), the RP-LC retention time was determined as 1200 s.

Take `O=C(Cc1cccc(C(F)(F)F)c1)Nc1cccn2ncnc12`: the RP-LC retention time was 837 s.

As to `CCC(CC)C(=O)Nc1nc(-c2ccc3c(c2)NC(=O)CO3)cs1`, the RP-LC retention time came to 846 s.

The compound `Cc1c(-c2noc(C(=O)NCCN3CCC(C)CC3)n2)oc2ccccc12` displayed an RP-LC retention time of 706 s.

Compound `Cc1c(CCO)c(=O)n2n1CCCC2` registered an RP-LC retention time of 618 s.

`O=C(Cn1ccnc1-c1ccnc(N2CCSCC2)c1)NCc1ccc(Cl)cc1` had an RP-LC retention time of 674 s.

`Cc1ccc(CCNC(=O)c2cc3n(n2)CC(C)(C(=O)NCc2ccccc2)N(C)C3=O)cc1` (centres undefined): the RP-LC retention time amounted to 815 s.

Regarding `O=c1ccc(-c2ccc3c(c2)OCO3)nn1Cc1nc(-c2ccc(F)c(Br)c2)no1`, the RP-LC retention time came out at 1100 s.

Turning to `Cc1ccc(Cn2cc(-c3ccncc3)cc2C(=O)Nc2ccc3c(c2)OCO3)cc1`, the RP-LC retention time was determined as 760 s.

Take `CCCN1C(=O)c2cc(S(=O)(=O)NCc3ccco3)ccc2Oc2cccnc21`: the RP-LC retention time came out at 952 s.

In turn, `CCN(C(=O)C1CCN(S(=O)(=O)c2ccc3c(c2)NC(=O)CO3)CC1)c1ccccc1` gave an RP-LC retention time of 794 s.

Take `Cn1cc(C2=CCN(S(=O)(=O)c3ccc(F)cc3)CC2)c2cccnc21`: the RP-LC retention time was found to be 949 s.

For the compound `O=C(Cn1cc(C(=O)C(=O)N2CCOCC2)c2ccccc21)NCc1ccc2c(c1)OCCCO2`, the RP-LC retention time was found to be 704 s.

The compound `CCC(C(=O)Nc1ccc(Cl)cc1)n1cnc2nc3c(cc2c1=O)CCCC3` (centres undefined) returned an RP-LC retention time of 878 s.

`CCn1c(=O)c(Nc2ccc(C)c(Cl)c2)nc2ccncc21` gave an RP-LC retention time of 649 s.

On to `CCc1cc(=O)n(CC(=O)Nc2ccc(C(C)C)cc2)c(N2CCOCC2)n1`, for which the RP-LC retention time is 895 s.

Compound `COc1ccc(Nc2nc(-c3nnn(-c4cccc(Cl)c4)c3C)ns2)cc1OC` displayed an RP-LC retention time of 963 s.

For `COc1ccc(OC)c(COCC(O)CN2CCN(Cc3ccccc3)CC2)c1` (centres undefined), the RP-LC retention time was 557 s.

`c1ccc(N2CCN(Cc3csc4c3CCCC4)CC2)nc1` displayed an RP-LC retention time of 605 s.

Consider `COC(=O)C1=C(C)NC2=C(C(=O)c3ccccc32)C1c1ccccc1OC` (centres undefined), for which the RP-LC retention time is 901 s.

`CCOc1ccc(C(=O)N2C[C@@H]3C[C@H]2C[C@@H]3NS(C)(=O)=O)cc1` gave an RP-LC retention time of 658 s.

For the compound `COc1ccc(-c2ncc3c(n2)CCN(S(=O)(=O)c2cccs2)C3)cc1`, the RP-LC retention time was determined as 997 s.

On to `COc1ccc(N2CCN(c3cc(SCC(=O)Nc4ccccc4OC)ncn3)CC2)cc1`, for which the RP-LC retention time worked out at 1040 s.

As for `O=C(CC1CCN(C(=O)Nc2ccccc2Cl)CC1)N1CCCCC1`, the RP-LC retention time was 806 s.

On to `NC(=O)C1CCN(C(=O)Cc2csc(NC(=O)Nc3ccc(Cl)cc3)n2)CC1`, for which the RP-LC retention time amounted to 684 s.

As for `CCOc1ccc(NC(=O)Nc2nccn(-c3ccc(OC)cc3)c2=O)cc1`, the RP-LC retention time was found to be 935 s.

Turning to `CC1=C(c2ccc(F)cc2)S(=O)(=O)N=C1N1CCCN(C(=O)c2cccnc2)CC1`, the RP-LC retention time turned out to be 713 s.

Turning to `O=C([C@@H]1C[C@H](Oc2cccnc2)CN1C(=O)c1n[nH]c(=O)c2ccccc12)N1CCCC1`, the RP-LC retention time was 564 s.

`O=C(Cc1nnc2c(-c3nc(C4CC4)no3)cccn12)NC1CCCCC1` had an RP-LC retention time of 685 s.

`CN(C(=O)CN1C(=O)C(O)(c2cccc(F)c2)c2ccccc21)c1ccccc1` (centres undefined) returned an RP-LC retention time of 856 s.

As to `COCCn1cc(C(=O)Nc2cccc(F)c2)c2nn(-c3ccccc3)c(=O)c-2c1`, the RP-LC retention time stood at 970 s.

The compound `CC(C)C(=O)Nc1cccn2nc(C3CCC3)nc12` yielded an RP-LC retention time of 802 s.

As for `CCOc1ccccc1NC(=O)Cn1ccnc1-c1ccnc(N2CCOCC2)c1`, the RP-LC retention time amounted to 638 s.

`O=C(NCCC1=CCCCC1)C1CCN(S(=O)(=O)c2ccc(-c3noc(C4CC4)n3)cc2)CC1` registered an RP-LC retention time of 1090 s.

Take `Fc1ccc(-c2nc3ncccn3c2NCc2ccc(Cl)cc2)cc1`: the RP-LC retention time came out at 782 s.

Consider `O=C(Cn1cccc1-c1nnc(C2CC2)o1)N1CCN(c2cccc(Cl)c2)CC1`, for which the RP-LC retention time is 944 s.

For `COc1ccc(N2C=C(C(=O)N3CCCC3)S(=O)(=O)c3ccccc32)cc1Cl`, the RP-LC retention time was 808 s.

`Cn1nc(-c2nnc(-c3ccccc3)o2)c2c1CCN(S(=O)(=O)c1cccc3cccnc13)C2` displayed an RP-LC retention time of 857 s.

Regarding `Fc1ccc(OCc2nnc3sc(-c4ccccn4)nn23)cc1`, the RP-LC retention time was 846 s.

`Cc1ccc(-c2nnc(Cc3nc(-c4ccc(F)cc4)no3)o2)cc1F` showed an RP-LC retention time of 1100 s.

`CCc1nc(-c2ccc3c(c2)CCN3C(=O)Cc2ccc(OC)c(OC)c2)no1` returned an RP-LC retention time of 923 s.

`O=C(c1nnc(-c2ccc(S(=O)(=O)N3CCCCC3)cc2)o1)N1CCCC1` gave an RP-LC retention time of 760 s.

For `C=CCNC(=O)N1CCCN(C2=NS(=O)(=O)C(c3ccc(F)cc3)=C2C)CC1`, the RP-LC retention time came to 736 s.

Compound `COc1cccc(NC(=O)Nc2ccc3c(c2)CCN3S(=O)(=O)c2ccccc2)c1` yielded an RP-LC retention time of 933 s.

Compound `CC(=O)N1CCc2sc(S(=O)(=O)NCc3ccc4c(c3)OCO4)cc2C1` had an RP-LC retention time of 727 s.

Consider `Cc1ccc(N2CCN(Cc3c(C)noc3C)CC2)cc1`, for which the RP-LC retention time amounted to 621 s.

Compound `CN(C)CCC1c2ccc(Cl)cc2CCc2cccnc21` (centres undefined) registered an RP-LC retention time of 666 s.

Consider `COc1cccc(CN2CC[C@@H]3CN(S(C)(=O)=O)[C@@H]3C2)n1`, for which the RP-LC retention time was determined as 553 s.

The compound `Cc1ccccc1OCC(=O)N1CCN(c2nc(CN3CCCCC3)cs2)CC1` came in with an RP-LC retention time of 895 s.

`O=C(NCCOc1cccc(C(F)(F)F)c1)C1CCCC1` had an RP-LC retention time of 880 s.

`O=C(Cc1nnc2cc(-c3nc(C4CC4)no3)ccn12)NCC1CC1`: the RP-LC retention time stood at 820 s.
